Laboratory results taken from patent US11999727B2 (Tango Therapeutics, Inc., priority 2020, dated 2024).
Like-named read-outs stand apart in the source and are kept apart here.

Key:
[1] = target: T1, PRMT5 (Homo sapiens, UniProt O14744); assay: PRMT5 biochemical IC50 assay with SAM as cofactor; settings: PRMT5, SAM as cofactor; read-out: SAM IC50
T1 construct: purchased Viva (custom protein)

[2] = test system: HAP1 MTAP-intact cell line; assay: SDMA in-cell western assay, HAP1 MTAP-intact; assay type: cell-based; settings: Homo sapiens
Outline: (§1)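 Readout: in-cell western detection of SDMA. Cells: HAP1 expressing endogenous MTAP and an MTAP-null HAP1 counterpart. Output: IC50.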

[3] = test system: HAP1 MTAP-deleted cell line; assay: SDMA in-cell western assay, HAP1 MTAP-deleted; assay type: cell-based; settings: for IC50: Homo sapiens; for MTAP intact/deleted ratio: SDMA in-cell western
Outline: as §1

[4] = target: T1, PRMT5; assay: PRMT5 biochemical IC50 assay with no cofactor; settings: PRMT5, no cofactor
Text: Table 1 indicates IC50 values (μM) against PRMT5 for exemplary compounds in the presence of SAM as cofactor, with no cofactor, and with MTA as cofactor, respectively (columns 4-6). […] Ki values can be calculated from the IC50 values as described in the Examples section. As detailed in the Examples section, for the assay performed in the presence of SAM, IC50=Ki×1.5 (Ki=IC50/1.5).

[5] = target: T1, PRMT5; assay: PRMT5 biochemical IC50 assay with MTA as cofactor; settings: PRMT5, MTA as cofactor; read-out: MTA IC50
[6] = test system: HAP1 MTAP-deleted cell line; assay: Viability assay, MTAP-deleted cell line; assay type: cell-based; settings: Homo sapiens
Text: Table 1 additionally indicates IC50 values in a viability assay for the MTAP-deleted cell line (column 10), indicating the effect of treatment with compound on cell survival.

[7] = HAP1, SDMA in-cell western, HAP1 MTAP-intact, read-out: MTAP HAP1 intact IC50
[8] = HAP1, SDMA in-cell western, HAP1 MTAP-deleted, read-out: HAP1 MTAP deleted IC50
[9] = IC50 ratio HAP1 MTAP-intact / HAP1 MTAP-deleted
[10] = HAP1, viability assay, HAP1 MTAP-deleted, read-out: HAP1 MTAP deleted viability
[11] = HAP1, SDMA in-cell western, HAP1 MTAP-deleted, read-out: HAP 1 MTAP deleted IC50
[12] = HAP1, viability assay, MTAP-deleted cell line, read-out: HAP1 MTAP deleted viability
[13] = IC50 ratio HAP1 MTAP-intact vs HAP1 MTAP-deleted
[14] = read-out: No Cofactor/ rel IC50
[15] = HAP1, viability, HAP1 MTAP-deleted cell line, read-out: HAP1 MTAP deleted viability
[16] = HAP1, viability IC50, MTAP-deleted cell line, read-out: HAP1 MTAP deleted viability

T1 sequence (O14744 whole entry): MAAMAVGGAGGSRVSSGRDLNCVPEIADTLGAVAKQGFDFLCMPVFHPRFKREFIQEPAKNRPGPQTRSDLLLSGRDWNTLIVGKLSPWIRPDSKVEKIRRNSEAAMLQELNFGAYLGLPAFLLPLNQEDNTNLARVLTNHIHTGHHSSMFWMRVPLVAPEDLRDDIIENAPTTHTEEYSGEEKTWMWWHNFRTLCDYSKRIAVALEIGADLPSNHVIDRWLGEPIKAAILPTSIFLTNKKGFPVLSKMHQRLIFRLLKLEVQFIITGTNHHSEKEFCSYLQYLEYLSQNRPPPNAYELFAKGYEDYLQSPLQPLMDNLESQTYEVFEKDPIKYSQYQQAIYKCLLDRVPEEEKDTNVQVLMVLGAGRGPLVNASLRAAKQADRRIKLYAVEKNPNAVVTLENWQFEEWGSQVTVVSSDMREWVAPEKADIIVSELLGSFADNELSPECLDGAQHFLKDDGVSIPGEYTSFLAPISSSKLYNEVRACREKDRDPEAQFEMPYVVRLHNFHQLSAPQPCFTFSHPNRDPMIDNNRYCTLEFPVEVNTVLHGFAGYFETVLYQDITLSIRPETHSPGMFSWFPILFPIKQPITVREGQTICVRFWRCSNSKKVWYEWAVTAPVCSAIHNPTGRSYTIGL
T1 sequence (Q9BQA1 whole entry partner): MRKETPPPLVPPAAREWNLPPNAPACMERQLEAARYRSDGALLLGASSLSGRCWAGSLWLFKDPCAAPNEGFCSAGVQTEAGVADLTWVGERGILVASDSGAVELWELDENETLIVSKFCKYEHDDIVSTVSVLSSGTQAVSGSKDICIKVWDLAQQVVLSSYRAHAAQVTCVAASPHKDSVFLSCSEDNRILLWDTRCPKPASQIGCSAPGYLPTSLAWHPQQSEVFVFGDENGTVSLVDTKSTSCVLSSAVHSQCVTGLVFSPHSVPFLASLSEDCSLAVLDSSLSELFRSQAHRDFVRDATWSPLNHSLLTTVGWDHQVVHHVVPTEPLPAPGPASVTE

| Compound | IC50 [1] [nM] | IC50 [2, 7] [nM] | IC50 [3, 8] [nM] | MTAP intact/deleted ratio [3, 9] | IC50 ([4]; read-out: No Cofactor/rel IC50) [nM] | IC50 [5] [nM] | IC50 [6, 10] [nM] | IC50 [3, 11] [nM] | IC50 [6, 12] [nM] | IC50 ([2]; HAP1, read-out: MTAP HAP1 intact IC50) [nM] | IC50 ([3]; HAP1, read-out: HAP1 MTAP deleted IC50) [nM] | IC50 ([6]; HAP1, read-out: HAP1 MTAP deleted viability) [nM] | MTAP intact/deleted ratio [3, 13] | IC50 [4, 14] [nM] | IC50 [6, 15] [nM] | IC50 [6, 16] [nM] |
| --- | --- | --- | --- | --- | --- | --- | --- | --- | --- | --- | --- | --- | --- | --- | --- | --- |
| COc1ncc(NC(=O)C(=O)N2C[C@H](C)CC[C@H]2c2ccc(NS(C)(=O)=O)cc2)cc1C(N)=O (single isomer, unassigned) [Compound 858] | 50 to 500 | > 1000 | < 100 | A (an IC50 ratio greater than or equal to 10 fold) | < 50 | < 50 | 1000 to 10000 | – | – | – | – | – | – | – | – | – |
| Cc1cc(NC(=O)C(=O)N2C[C@H](C)CC[C@H]2c2ccc(F)c3[nH]ncc23)cnc1N (racemic) [Compound 1019] | 50 to 500 | > 1000 | – | A (an IC50 ratio greater than or equal to 10 fold) | 50 to 500 | 50 to 500 | – | < 100 | 1000 to 10000 | – | – | – | – | – | – | – |
| CC(=O)Nc1ccc([C@@H]2CC[C@@H](C)CN2C(=O)C(=O)Nc2cncc(C(N)=O)c2)cc1 (single isomer, unassigned) [Compound 451] | 50 to 500 | > 1000 | < 100 | A (an IC50 ratio greater than or equal to 10 fold) | 50 to 500 | < 50 | – | – | 1000 to 10000 | – | – | – | – | – | – | – |
| COc1ncc(NC(=O)C(=O)N2C[C@@H](C)CC[C@@H]2c2ccccc2)cc1C(N)=O (single isomer, unassigned) [Compound 291] | > 500 | – | – | C (an IC50 ratio of less than 3 fold) | > 500 | > 500 | – | – | – | > 1000 | > 1000 | > 10000 | – | – | – | – |
| C[C@@H]1C[C@H](C)[C@@H](c2ccccc2)N(C(=O)C(=O)Nc2cncc(C(N)=O)c2)C1 (single isomer, unassigned) [Compound 311, 5-(2-(3,5-dimethyl-2-phenylpiperidin-1-yl)-2-oxoacetamido)nicotinamide] | 50 to 500 | > 1000 | 100 to 1000 | A (an IC50 ratio greater than or equal to 10 fold) | 50 to 500 | < 50 | – | – | > 10000 | – | – | – | – | – | – | – |
| COc1ncc(NC(=O)C(=O)N2C[C@@H](C)CC[C@@H]2c2ccc3sc(CCN(C)C)nc3c2)cc1C(N)=O (single isomer, unassigned) [Compound 1146] | < 50 | < 100 | < 100 | – | < 50 | < 50 | – | – | < 1000 | – | – | – | A (an IC50 ratio greater than or equal to 10 fold) | – | – | – |
| CCc1cc(NC(=O)C(=O)N2C[C@@H](C)CC[C@@H]2c2ccc3sc([C@H]4CCCN(C)C4)nc3c2)cnc1N [Compound 1388, N-(6-amino-5-ethylpyridin-3-yl)-2-((2R,5S)-5-methyl-2-(2-(1-methylpiperidin-3-yl)benzo[d]thiazol-5-yl)piperidin-1-yl)-2-oxoacetamide] | < 50 | < 100 | – | A (an IC50 ratio greater than or equal to 10 fold) | – | < 50 | – | < 100 | – | – | – | – | – | < 50 | < 1000 | – |
| C[C@@H]1CC[C@@H](c2ccc(NCC(=O)N(C)C)cc2)N(C(=O)C(=O)Nc2cncc(C(N)=O)c2)C1 (single isomer, unassigned) [Compound 437] | 50 to 500 | > 1000 | < 100 | A (an IC50 ratio greater than or equal to 10 fold) | 50 to 500 | < 50 | – | – | 1000 to 10000 | – | – | – | – | – | – | – |
| C[C@@H]1CC[C@@H](c2cc(F)c3[nH]ncc3c2)N(C(=O)C(=O)Nc2cncc(C(N)=O)c2)C1 (single isomer, unassigned) [Compound 663] | 50 to 500 | > 1000 | – | A (an IC50 ratio greater than or equal to 10 fold) | < 50 | < 50 | – | < 100 | – | – | – | – | – | – | – | 1000 to 10000 |
| Cc1cc(NC(=O)C(=O)N2C[C@@H](C)CC[C@@H]2c2ccc3c(c2)C(=O)NC3)cnc1N (single isomer, unassigned) [Compound 657] | 50 to 500 | 100 to 1000 | – | A (an IC50 ratio greater than or equal to 10 fold) | < 50 | < 50 | – | < 100 | – | – | – | – | – | – | – | < 1000 |
| CCc1cc(NC(=O)C(=O)N2C[C@H](C)CC[C@H]2c2ccc3sc(C)nc3c2)cnc1N (single isomer, unassigned) [Compound 801] | > 500 | > 1000 | > 1000 | B (an IC50 ratio greater than or equal to 3 fold but lower than 10 fold) | > 500 | > 500 | > 10000 | – | – | – | – | – | – | – | – | – |
| Cc1cc(NC(=O)C(=O)N2C[C@@H](C)CC[C@@H]2c2ccc(N)cc2)cnc1N (single isomer, unassigned) [Compound 1081] | > 500 | > 1000 | > 1000 | – | > 500 | > 500 | – | – | > 10000 | – | – | – | B (an IC50 ratio greater than or equal to 3 fold but lower than 10 fold) | – | – | – |
| Cc1cc(NC(=O)C(=O)N2CCCCC2C2CCC2)cnc1N (centres unmarked) [Compound 182, N-(6-amino-5-methyl-3-pyridyl)-2-(2-cyclobutyl-1-piperidyl)-2-oxo-acetamide] | 50 to 500 | > 1000 | 100 to 1000 | A (an IC50 ratio greater than or equal to 10 fold) | 50 to 500 | < 50 | – | – | > 10000 | – | – | – | – | – | – | – |
| CC(=O)Nc1ccc([C@H]2CC[C@H](C)CN2C(=O)C(=O)Nc2cncc(C(N)=O)c2)s1 (single isomer, unassigned) [Compound 686] | > 500 | > 1000 | – | C (an IC50 ratio of less than 3 fold) | > 500 | > 500 | – | > 1000 | – | – | – | – | – | – | – | > 10000 |
| C[C@@H]1CC[C@@H](c2ccccc2)N(C(=O)C(=O)Nc2cnc(O)c(C(N)=O)c2)C1 (racemic) [Compound 494, rac-2-hydroxy-5-(2-((2R,5S)-5-methyl-2-phenylpiperidin-1-yl)-2-oxoacetamido)nicotinamide] | > 500 | > 1000 | > 1000 | C (an IC50 ratio of less than 3 fold) | 50 to 500 | 50 to 500 | – | – | > 10000 | – | – | – | – | – | – | – |
| Cc1cc(NC(=O)C(=O)N2C[C@H](C)[C@@H](OC(C)C)C[C@H]2c2ccccc2)cnc1N (single isomer, unassigned) [Compound 1088] | 50 to 500 | 100 to 1000 | < 100 | – | < 50 | < 50 | – | – | < 1000 | – | – | – | A (an IC50 ratio greater than or equal to 10 fold) | – | – | – |
| CCc1cc(NC(=O)C(=O)N2C[C@H](C)CC[C@H]2c2cc3[nH]ncc3s2)cnc1N (single isomer, unassigned) [Compound 955] | 50 to 500 | 100 to 1000 | – | A (an IC50 ratio greater than or equal to 10 fold) | < 50 | < 50 | – | < 100 | < 1000 | – | – | – | – | – | – | – |
| Cc1c(NC(=O)C(=O)N2[C@H](C)CCC[C@@H]2c2ccccc2)cnc(N)c1C (single isomer, unassigned) [Compound 439] | 50 to 500 | > 1000 | < 100 | A (an IC50 ratio greater than or equal to 10 fold) | 50 to 500 | < 50 | – | – | 1000 to 10000 | – | – | – | – | – | – | – |
| COc1ncc(NC(=O)C(=O)N2C[C@@H](C)CC[C@@H]2c2ccc3[nH]cnc3c2)cc1C(N)=O (single isomer, unassigned) [Compound 805] | > 500 | > 1000 | 100 to 1000 | A (an IC50 ratio greater than or equal to 10 fold) | > 500 | > 500 | > 10000 | – | – | – | – | – | – | – | – | – |
| CCc1cc(NC(=O)C(=O)N2C[C@@H](C)CC[C@@H]2c2ccc(N3CCC(CN4CCCC4)CC3)cc2)cnc1N [Compound 1276, N-(6-Amino-5-ethylpyridin-3-yl)-2-[(2R,5S)-5-methyl-2-(4-{4-[(pyrrolidin-1-yl)methyl]piperidin-1-yl}phenyl)piperidin-1-yl]-2-oxoacetamide] | < 50 | 100 to 1000 | – | A (an IC50 ratio greater than or equal to 10 fold) | – | < 50 | – | < 100 | – | – | – | – | – | < 50 | < 1000 | – |
